Assay results: patent publication EP1432683B9 (Recordati Ireland Limited, priority 2001, dated 2003)
Structures can show the parent of a compound that is named as a salt.

Legend:
[1] = Solubility of crude forms compared with other crude forms; assay type: physicochemical
[2] = oral administration; cited from earlier work

Structure (SMILES) | solubility compared to other crude forms previously reported [1] | peak plasma levels occurring (time following dosing) [2]
COC(=O)C1=C(C)NC(C)=C(C(=O)OC(C)(C)CN(C)CCC(c2ccccc2)c2ccccc2)C1c1cccc([N+](=O)[O-])c1 (centres unmarked) [Form (A), lercanidipine hydrochloride] | higher solubility | –
COC(=O)C1=C(C)NC(C)=C(C(=O)OC(C)(C)CN(C)CCC(c2ccccc2)c2ccccc2)C1c1cccc([N+](=O)[O-])c1 (centres unmarked) [Lercanidipine, methyl 1,1,N-trimethyl-N-(3,3-diphenylpropyl)-2-aminoethyl 1,4-dihyaro-2,6-dimethyl-4-(3-nitrophenyl)pyridine-3,5-dicarboxylate] | – | 2 to 3 h
